Experimental data reported in ChEMBL document CHEMBL1154879, “Discovery of (thienopyrimidin-2-yl)aminopyrimidines as potent, selective, and orally available pan-PI3-kinase and dual pan-PI3-kinase/mTOR inhibitors for the treatment of cancer” (J Med Chem, 2010).
Calls of active or inactive are those of the source. No cut-off for these calls is given here.

Columns and labels:
Mus musculus [1] = assay: Toxicity in human MCF7.1 cells expressing PI3Kalpha mutant xenografted nu/nu mouse assessed as body weight loss at 6.25 mg/kg, po qd for 21 days; type: organism-based; set-up: dose 6.25 mg/kg, route oral; conditions: in vivo, 504 h
Mus musculus [2] = assay: Inhibition of PI3K/Akt/mTOR pathway signaling in PI3Kalpha mutant expressing human MCF7.1 cells xenografted nu/nu mouse assessed as inhibition of Pras40 Thr246 phosphorylation at 6.25 mg/kg, po qd for 21 days measured 1 hr after last administered dose on day 21 by ELISA; type: functional
Mus musculus [3] = assay: Inhibition of PI3K/Akt/mTOR pathway signaling in PI3Kalpha mutant expressing human MCF7.1 cells xenografted nu/nu mouse assessed as inhibition of Akt Ser473 phosphorylation at 25 mg/kg, po qd for 21 days measured 4 hrs after last administered dose on day 21 by electrochemiluminescence assay; type: functional
[4] = target: Phosphatidylinositol 4,5-bisphosphate 3-kinase catalytic subunit alpha isoform (Homo sapiens, UniProt P42336)
Chain of Phosphatidylinositol 4,5-bisphosphate 3-kinase catalytic subunit alpha isoform (P42336 whole entry, canonical isoform): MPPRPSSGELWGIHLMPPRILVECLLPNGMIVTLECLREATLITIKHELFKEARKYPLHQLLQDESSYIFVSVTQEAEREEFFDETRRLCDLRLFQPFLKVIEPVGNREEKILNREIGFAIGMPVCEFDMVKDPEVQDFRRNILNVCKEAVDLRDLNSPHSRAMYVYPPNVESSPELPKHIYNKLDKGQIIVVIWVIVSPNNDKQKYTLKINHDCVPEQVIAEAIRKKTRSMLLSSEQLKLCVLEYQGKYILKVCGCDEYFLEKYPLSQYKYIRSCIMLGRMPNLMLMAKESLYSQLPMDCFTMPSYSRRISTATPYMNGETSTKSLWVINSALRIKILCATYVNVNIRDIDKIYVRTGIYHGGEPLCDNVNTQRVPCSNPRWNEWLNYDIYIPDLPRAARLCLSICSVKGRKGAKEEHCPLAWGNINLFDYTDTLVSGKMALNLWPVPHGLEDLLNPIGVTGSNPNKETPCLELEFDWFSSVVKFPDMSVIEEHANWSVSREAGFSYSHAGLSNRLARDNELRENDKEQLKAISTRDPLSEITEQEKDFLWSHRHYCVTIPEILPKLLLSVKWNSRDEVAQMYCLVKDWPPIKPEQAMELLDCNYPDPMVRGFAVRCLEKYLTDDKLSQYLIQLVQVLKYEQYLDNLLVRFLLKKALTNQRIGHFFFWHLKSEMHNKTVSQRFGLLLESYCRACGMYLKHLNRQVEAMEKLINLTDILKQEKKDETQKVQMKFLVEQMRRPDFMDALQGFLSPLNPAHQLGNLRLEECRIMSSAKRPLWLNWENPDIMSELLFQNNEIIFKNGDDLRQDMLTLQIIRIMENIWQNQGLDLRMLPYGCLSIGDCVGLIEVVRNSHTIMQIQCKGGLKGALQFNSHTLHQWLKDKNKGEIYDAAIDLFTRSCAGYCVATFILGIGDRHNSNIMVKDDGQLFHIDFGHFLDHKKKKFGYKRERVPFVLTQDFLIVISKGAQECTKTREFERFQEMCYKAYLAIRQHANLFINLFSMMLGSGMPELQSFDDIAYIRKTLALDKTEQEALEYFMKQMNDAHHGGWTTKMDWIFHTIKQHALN

[5] = Antitumor activity against human MCF7.1 cells expressing PI3Kalpha mutant xenografted in nu/nu mouse assessed as inhibition of tumor growth at 6.25 mg/kg, po qd for 21 days; type: functional; conditions: MCF7.1, 504 h, read-out: TGI
Mus musculus [6] = assay: Inhibition of PI3K/Akt/mTOR pathway signaling in PI3Kalpha mutant expressing human MCF7.1 cells xenografted nu/nu mouse assessed as inhibition of Pras40 Thr246 phosphorylation at 6.25 mg/kg, po qd for 21 days measured 4 hrs after last administered dose on day 21 by ELISA; type: functional
[7] = target: Phosphatidylinositol 4-phosphate 3-kinase C2 domain-containing subunit alpha (Homo sapiens) (UniProt O00443); assay: Inhibition of PIK3C2alpha at 1 uM
Chain of Phosphatidylinositol 4-phosphate 3-kinase C2 domain-containing subunit alpha (Homo sapiens) (O00443 whole entry, the tested form may be a part): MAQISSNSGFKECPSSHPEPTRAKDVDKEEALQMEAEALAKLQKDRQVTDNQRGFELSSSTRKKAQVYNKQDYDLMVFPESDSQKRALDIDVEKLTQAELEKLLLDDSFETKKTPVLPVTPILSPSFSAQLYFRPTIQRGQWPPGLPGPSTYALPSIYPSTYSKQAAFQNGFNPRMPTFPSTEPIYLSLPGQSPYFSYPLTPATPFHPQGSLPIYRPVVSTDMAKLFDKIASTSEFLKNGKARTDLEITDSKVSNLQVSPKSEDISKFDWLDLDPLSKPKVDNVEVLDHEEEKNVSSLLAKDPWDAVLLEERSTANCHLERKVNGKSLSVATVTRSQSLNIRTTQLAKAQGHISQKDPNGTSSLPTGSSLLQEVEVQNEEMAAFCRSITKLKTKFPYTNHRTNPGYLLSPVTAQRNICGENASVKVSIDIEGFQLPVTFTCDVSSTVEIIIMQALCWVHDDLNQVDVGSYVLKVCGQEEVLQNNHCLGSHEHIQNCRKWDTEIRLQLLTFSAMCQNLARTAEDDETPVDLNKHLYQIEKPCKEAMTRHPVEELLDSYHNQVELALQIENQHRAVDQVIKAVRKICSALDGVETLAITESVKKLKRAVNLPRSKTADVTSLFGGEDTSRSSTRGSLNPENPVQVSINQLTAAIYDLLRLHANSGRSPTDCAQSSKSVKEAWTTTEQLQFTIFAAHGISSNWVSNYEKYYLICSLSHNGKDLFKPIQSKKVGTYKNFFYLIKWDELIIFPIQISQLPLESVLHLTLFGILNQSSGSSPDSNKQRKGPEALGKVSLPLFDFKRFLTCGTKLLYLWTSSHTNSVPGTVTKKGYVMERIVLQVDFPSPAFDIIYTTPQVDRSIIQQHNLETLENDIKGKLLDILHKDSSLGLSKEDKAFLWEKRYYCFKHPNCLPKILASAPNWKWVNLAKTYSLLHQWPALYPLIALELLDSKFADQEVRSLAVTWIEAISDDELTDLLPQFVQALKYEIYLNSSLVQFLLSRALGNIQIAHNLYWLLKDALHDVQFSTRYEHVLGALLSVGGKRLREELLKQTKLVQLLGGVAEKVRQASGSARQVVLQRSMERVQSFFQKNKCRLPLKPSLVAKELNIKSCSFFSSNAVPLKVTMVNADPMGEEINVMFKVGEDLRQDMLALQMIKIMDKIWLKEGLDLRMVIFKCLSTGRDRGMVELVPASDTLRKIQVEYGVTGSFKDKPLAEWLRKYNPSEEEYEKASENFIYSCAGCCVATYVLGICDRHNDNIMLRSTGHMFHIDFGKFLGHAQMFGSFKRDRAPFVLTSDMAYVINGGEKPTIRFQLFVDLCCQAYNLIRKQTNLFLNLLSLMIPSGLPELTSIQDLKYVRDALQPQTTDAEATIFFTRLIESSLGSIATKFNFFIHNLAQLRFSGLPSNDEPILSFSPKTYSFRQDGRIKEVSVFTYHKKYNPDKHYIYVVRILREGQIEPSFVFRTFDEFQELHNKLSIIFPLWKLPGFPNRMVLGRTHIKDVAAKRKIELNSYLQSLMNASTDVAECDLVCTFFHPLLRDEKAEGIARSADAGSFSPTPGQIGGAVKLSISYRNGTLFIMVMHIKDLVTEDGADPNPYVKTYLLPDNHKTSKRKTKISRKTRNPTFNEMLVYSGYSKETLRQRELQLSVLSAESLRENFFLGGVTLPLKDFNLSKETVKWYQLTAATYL

Mus musculus [8] = assay: Inhibition of PI3K/Akt/mTOR pathway signaling in PI3Kalpha mutant expressing human MCF7.1 cells xenografted nu/nu mouse assessed as inhibition of Pras40 Thr246 phosphorylation at 12.5 mg/kg, po qd for 21 days measured 4 hrs after last administered dose on day 21 by ELISA; type: functional
MCF7.1 = assay: Antitumor activity against human MCF7.1 cells expressing PI3Kalpha mutant xenografted in nu/nu mouse assessed as inhibition of tumor growth at 25 mg/kg, po qd for 21 days; type: functional, organism-based; set-up: dose 25 mg/kg
Mus musculus [9] = assay: Inhibition of PI3K/Akt/mTOR pathway signaling in PI3Kalpha mutant expressing human MCF7.1 cells xenografted nu/nu mouse assessed as inhibition of S6RP Ser235/236 phosphorylation at 25 mg/kg, po qd for 21 days measured 1 hr after last administered dose on day 21 by electrochemiluminescence assay; type: functional
PC-3 = assay: Antiproliferative activity against human PC3 cells deficient in PTEN in after 3 to 4 days; type: functional, cell-based
Aurora kinase A = target: T1, Aurora kinase A (Homo sapiens, UniProt O14965); assay: Inhibition of Aurora A kinase
T1 sequence (O14965 whole entry): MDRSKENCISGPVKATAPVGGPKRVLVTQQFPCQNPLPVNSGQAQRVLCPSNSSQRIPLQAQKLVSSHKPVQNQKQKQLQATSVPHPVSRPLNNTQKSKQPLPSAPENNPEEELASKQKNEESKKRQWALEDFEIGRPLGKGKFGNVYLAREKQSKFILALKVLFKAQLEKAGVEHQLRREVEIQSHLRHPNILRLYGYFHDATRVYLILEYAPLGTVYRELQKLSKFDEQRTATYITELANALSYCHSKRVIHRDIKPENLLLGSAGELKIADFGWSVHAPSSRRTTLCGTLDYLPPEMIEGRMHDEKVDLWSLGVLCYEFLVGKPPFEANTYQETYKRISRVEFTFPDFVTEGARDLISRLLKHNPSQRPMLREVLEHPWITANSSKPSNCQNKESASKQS

[10] = Oral bioavailability in nu/nu mouse at 5 mg/kg, po; type: ADME, organism-based; conditions: in vivo
Mus musculus [11] = assay: Inhibition of PI3K/Akt/mTOR pathway signaling in PI3Kalpha mutant expressing human MCF7.1 cells xenografted nu/nu mouse assessed as inhibition of Pras40 Thr246 phosphorylation at 25 mg/kg, po qd for 21 days measured 1 hr after last administered dose on day 21 by ELISA; type: functional
Mus musculus [12] = assay: Inhibition of PI3K/Akt/mTOR pathway signaling in PI3Kalpha mutant expressing human MCF7.1 cells xenografted nu/nu mouse assessed as inhibition of S6RP Ser235/236 phosphorylation at 25 mg/kg, po qd for 21 days measured 4 hrs after last administered dose on day 21 by electrochemiluminescence assay; type: functional
Mus musculus [13] = assay: Inhibition of PI3K/Akt/mTOR pathway signaling in PI3Kalpha mutant expressing human MCF7.1 cells xenografted nu/nu mouse assessed as inhibition of S6RP Ser235/236 phosphorylation at 12.5 mg/kg, po qd for 21 days measured 1 hr after last administered dose on day 21 by electrochemiluminescence assay; type: functional
[14] = Clearance in nu/nu mouse at 1 mg/kg, iv; type: ADME, organism-based; set-up: dose 1 mg/kg, route intravenous; conditions: in vivo
Mus musculus [15] = assay: Inhibition of PI3K/Akt/mTOR pathway signaling in PI3Kalpha mutant expressing human MCF7.1 cells xenografted nu/nu mouse assessed as inhibition of Akt Ser473 phosphorylation at 25 mg/kg, po qd for 21 days measured 1 hr after last administered dose on day 21 by electrochemiluminescence assay; type: functional
Mus musculus [16] = assay: Inhibition of PI3K/Akt/mTOR pathway signaling in PI3Kalpha mutant expressing human MCF7.1 cells xenografted nu/nu mouse assessed as inhibition of S6RP Ser235/236 phosphorylation at 6.25 mg/kg, po qd for 21 days measured 1 hr after last administered dose on day 21 by electrochemiluminescence assay; type: functional
[17] = Antiproliferative activity against human MCF7.1 cells expressing PI3Kalpha mutant after 3 to 4 days; type: functional, cell-based
Mus musculus [18] = assay: Inhibition of PI3K/Akt/mTOR pathway signaling in PI3Kalpha mutant expressing human MCF7.1 cells xenografted nu/nu mouse assessed as inhibition of Akt Ser473 phosphorylation at 12.5 mg/kg, po qd for 21 days measured 1 hr after last administered dose on day 21 by electrochemiluminescence assay; type: functional
[19] = target: Mitogen-activated protein kinase kinase kinase 9 (Homo sapiens, UniProt P80192); assay: Inhibition of MLK1
Chain of Mitogen-activated protein kinase kinase kinase 9 (P80192 whole entry): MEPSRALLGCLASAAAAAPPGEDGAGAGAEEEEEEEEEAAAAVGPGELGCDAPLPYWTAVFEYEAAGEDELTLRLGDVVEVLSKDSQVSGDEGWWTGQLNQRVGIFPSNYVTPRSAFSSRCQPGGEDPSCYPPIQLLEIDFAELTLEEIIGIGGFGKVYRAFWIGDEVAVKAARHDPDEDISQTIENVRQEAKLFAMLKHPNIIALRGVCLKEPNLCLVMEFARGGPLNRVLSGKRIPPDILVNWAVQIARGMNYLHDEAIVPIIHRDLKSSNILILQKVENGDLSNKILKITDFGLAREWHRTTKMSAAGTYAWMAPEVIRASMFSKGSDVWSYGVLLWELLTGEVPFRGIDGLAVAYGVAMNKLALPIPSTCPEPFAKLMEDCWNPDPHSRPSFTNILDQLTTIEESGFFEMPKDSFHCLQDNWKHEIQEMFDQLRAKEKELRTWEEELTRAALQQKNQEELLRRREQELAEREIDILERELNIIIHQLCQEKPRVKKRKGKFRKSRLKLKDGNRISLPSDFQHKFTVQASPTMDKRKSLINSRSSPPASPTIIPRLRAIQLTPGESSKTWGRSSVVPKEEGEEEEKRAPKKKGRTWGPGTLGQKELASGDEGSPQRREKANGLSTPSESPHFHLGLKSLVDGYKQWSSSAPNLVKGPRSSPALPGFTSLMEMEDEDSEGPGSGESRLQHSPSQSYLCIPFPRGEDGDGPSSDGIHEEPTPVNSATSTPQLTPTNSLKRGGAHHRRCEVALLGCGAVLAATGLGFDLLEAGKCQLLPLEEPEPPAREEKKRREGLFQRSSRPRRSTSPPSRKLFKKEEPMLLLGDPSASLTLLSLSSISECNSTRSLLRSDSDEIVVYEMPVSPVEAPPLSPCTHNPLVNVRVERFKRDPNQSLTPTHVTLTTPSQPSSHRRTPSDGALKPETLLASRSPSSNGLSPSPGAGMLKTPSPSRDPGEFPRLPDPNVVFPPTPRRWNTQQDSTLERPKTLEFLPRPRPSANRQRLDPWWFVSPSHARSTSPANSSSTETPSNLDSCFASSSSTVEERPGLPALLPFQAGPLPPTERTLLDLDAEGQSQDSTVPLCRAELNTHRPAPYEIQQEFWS

Mus musculus [20] = assay: Toxicity in human MCF7.1 cells expressing PI3Kalpha mutant xenografted nu/nu mouse assessed as body weight loss at 12.5 mg/kg, po qd for 21 days; type: organism-based; set-up: dose 12.5 mg/kg, route oral; conditions: in vivo, 504 h
Mus musculus [21] = assay: Inhibition of PI3K/Akt/mTOR pathway signaling in PI3Kalpha mutant expressing human MCF7.1 cells xenografted nu/nu mouse assessed as inhibition of Pras40 Thr246 phosphorylation at 25 mg/kg, po qd for 21 days measured 4 hrs after last administered dose on day 21 by ELISA; type: functional
Mus musculus [22] = assay: Inhibition of PI3K/Akt/mTOR pathway signaling in PI3Kalpha mutant expressing human MCF7.1 cells xenografted nu/nu mouse assessed as inhibition of S6RP Ser235/236 phosphorylation at 12.5 mg/kg, po qd for 21 days measured 4 hrs after last administered dose on day 21 by electrochemiluminescence assay; type: functional

With `Cc1nc(N)ncc1-c1nc(N2CCOCC2)c2sc(C(C)(C)O)cc2n1` the Activity (Mus musculus [1]) was “Non-toxic”, the inhibition in vivo at 6.25 mg/kg (Mus musculus [2]) was 98% and the inhibition in vivo at 25 mg/kg (Mus musculus [3]) was 66%. It also gave an IC50 [4] of 3.5 nM, an inhibition in vivo at 6.25 mg/kg [5] of 28% and an inhibition in vivo at 6.25 mg/kg (Mus musculus [6]) of 54%. For the same molecule, the inhibition [7] was “inactive”, the inhibition in vivo at 12.5 mg/kg (Mus musculus [8]) was 90% and the Activity (MCF7.1) was “Active”. For the same molecule, the inhibition in vivo at 25 mg/kg (Mus musculus [9]) was 74%, the IC50 (PC-3) was 490 nM and the IC50 (Aurora kinase A) was greater than 1000 nM. It also gave a bioavailability [10] of 100%, an inhibition in vivo at 25 mg/kg (Mus musculus [11]) of 97% and an inhibition in vivo at 25 mg/kg (Mus musculus [12]) of 63%. It also gave an inhibition in vivo at 12.5 mg/kg (Mus musculus [13]) of 77%, a clearance [14] of 51 mL/min/kg and an inhibition in vivo at 25 mg/kg (Mus musculus [15]) of 82%. The inhibition in vivo at 6.25 mg/kg (Mus musculus [16]) was 70%, the IC50 [17] was 280 nM and the inhibition in vivo at 12.5 mg/kg (Mus musculus [18]) was 83%. The IC50 [19] was greater than 1000 nM, the Activity (Mus musculus [20]) was “Non-toxic” and the inhibition in vivo at 25 mg/kg (Mus musculus [21]) was 95%. The inhibition in vivo at 12.5 mg/kg (Mus musculus [22]) was 50%.
